These results are taken from article PMC12621043, “Un-LOK-ing a New Approach for Conformational Selective Targeting of STK10 (LOK)” (ACS Medicinal Chemistry Letters, 2025).

The target of one assay is SLK (Homo sapiens, UniProt Q9H2G2). Put plainly: PhosphoSens in vitro activity assay. As to conditions: ATP 150 μM. In kind it is biochemical.
In a further assay the target is T1, PCTK1A (Homo sapiens, UniProt Q00536).
T1 construct: purchased in-house DSF kinase panel (SGC-style construct names; the trailing letter is the construct ID)
T1 sequence (Q00536 163-478): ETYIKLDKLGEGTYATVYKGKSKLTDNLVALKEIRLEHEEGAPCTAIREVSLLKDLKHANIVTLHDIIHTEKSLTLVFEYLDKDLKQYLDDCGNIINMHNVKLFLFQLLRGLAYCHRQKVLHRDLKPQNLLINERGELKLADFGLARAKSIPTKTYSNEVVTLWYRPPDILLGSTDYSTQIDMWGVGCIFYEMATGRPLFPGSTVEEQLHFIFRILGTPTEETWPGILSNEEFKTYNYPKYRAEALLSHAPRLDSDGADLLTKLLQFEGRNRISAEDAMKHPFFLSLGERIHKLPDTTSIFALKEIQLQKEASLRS
Nature of the assay: DSF Tm panel. Format: binding. As to conditions: 10 μM compound.

In the next assay the target is T2, MST3A (Homo sapiens, UniProt Q9Y6E0).
T2 construct: purchased in-house DSF kinase panel (SGC-style construct names; the trailing letter is the construct ID)
T2 sequence (Q9Y6E0 whole entry): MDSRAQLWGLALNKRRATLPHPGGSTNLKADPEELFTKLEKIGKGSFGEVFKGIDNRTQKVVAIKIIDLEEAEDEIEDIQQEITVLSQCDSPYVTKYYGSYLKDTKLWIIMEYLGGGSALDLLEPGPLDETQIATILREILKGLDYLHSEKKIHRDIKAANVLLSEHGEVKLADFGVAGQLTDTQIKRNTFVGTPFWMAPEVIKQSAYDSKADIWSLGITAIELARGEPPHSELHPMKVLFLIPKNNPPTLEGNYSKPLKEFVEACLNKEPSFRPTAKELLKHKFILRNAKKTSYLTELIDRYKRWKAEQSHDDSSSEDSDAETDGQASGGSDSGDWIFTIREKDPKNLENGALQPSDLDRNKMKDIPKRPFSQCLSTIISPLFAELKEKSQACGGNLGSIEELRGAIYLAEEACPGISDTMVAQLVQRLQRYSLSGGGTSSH
Put plainly: DSF Tm panel. Format: binding. As to conditions: 10 μM compound.

The next assay concerns the target T3, DMPK1A (Homo sapiens, UniProt Q09013).
T3 construct: purchased in-house DSF kinase panel (SGC-style construct names; the trailing letter is the construct ID)
T3 sequence (Q09013 1-629): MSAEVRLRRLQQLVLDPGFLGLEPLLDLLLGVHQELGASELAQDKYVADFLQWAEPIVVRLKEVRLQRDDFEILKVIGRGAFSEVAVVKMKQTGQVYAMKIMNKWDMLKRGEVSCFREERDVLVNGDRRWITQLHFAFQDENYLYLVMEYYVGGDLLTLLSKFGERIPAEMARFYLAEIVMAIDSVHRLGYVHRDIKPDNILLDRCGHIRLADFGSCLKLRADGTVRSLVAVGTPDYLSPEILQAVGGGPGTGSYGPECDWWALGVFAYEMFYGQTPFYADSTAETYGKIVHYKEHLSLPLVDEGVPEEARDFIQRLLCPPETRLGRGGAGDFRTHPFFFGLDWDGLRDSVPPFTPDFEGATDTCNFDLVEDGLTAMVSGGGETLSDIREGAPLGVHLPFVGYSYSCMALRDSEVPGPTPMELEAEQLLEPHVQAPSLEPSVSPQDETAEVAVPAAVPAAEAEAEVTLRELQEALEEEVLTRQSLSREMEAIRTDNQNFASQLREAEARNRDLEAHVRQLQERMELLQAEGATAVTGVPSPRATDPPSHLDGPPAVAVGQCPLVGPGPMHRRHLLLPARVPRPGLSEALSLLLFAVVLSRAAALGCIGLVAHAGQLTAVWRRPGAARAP
Put plainly: DSF Tm panel. Format: binding. As to conditions: 10 μM compound.

A further assay addresses T4, CLK1A (Homo sapiens, UniProt P49759).
T4 construct: purchased in-house DSF kinase panel (SGC-style construct names; the trailing letter is the construct ID)
Nature of the assay: DSF Tm panel. Format: binding. Particulars: 10 μM compound.

Another assay concerns the target T5, NEK1A (Homo sapiens, UniProt Q96PY6).
T5 construct: purchased in-house DSF kinase panel (SGC-style construct names; the trailing letter is the construct ID)
T5 sequence (Q96PY6 1-328): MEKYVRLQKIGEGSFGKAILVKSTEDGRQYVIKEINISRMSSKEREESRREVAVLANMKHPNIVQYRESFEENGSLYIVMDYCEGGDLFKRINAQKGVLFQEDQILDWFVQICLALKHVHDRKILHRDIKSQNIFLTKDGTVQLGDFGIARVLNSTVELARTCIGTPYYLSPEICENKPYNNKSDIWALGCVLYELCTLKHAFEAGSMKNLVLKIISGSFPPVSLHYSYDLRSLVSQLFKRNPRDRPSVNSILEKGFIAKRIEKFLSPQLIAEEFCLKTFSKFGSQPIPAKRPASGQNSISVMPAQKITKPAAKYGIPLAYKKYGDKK
Put plainly: DSF Tm panel. Format: binding. As to conditions: 10 μM compound.

A further assay concerns the target T6, ABL1 (ABL1A) (Homo sapiens, UniProt P00519).
T6 construct: purchased in-house DSF kinase panel (SGC-style construct names; the trailing letter is the construct ID)
T6 sequence (P00519 229-512): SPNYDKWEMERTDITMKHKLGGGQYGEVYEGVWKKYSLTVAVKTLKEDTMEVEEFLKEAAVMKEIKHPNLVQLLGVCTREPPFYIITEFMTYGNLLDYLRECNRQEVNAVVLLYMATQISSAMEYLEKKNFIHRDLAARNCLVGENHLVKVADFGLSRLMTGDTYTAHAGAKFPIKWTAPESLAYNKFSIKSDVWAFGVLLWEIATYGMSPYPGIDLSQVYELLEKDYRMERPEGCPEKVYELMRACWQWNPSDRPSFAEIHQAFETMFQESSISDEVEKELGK
Nature of the assay: DSF Tm panel. Format: binding. As to conditions: 10 μM compound.

The next assay concerns the target T7, MELKA (Homo sapiens, UniProt Q14680).
T7 construct: purchased in-house DSF kinase panel (SGC-style construct names; the trailing letter is the construct ID)
Put plainly: DSF Tm panel. In kind it is binding. As to conditions: 10 μM compound.

The next assay concerns the target T8, MST4A (Homo sapiens, UniProt Q9P289).
T8 construct: purchased in-house DSF kinase panel (SGC-style construct names; the trailing letter is the construct ID)
Put plainly: DSF Tm panel. As to conditions: 10 μM compound. Format: binding.

The next assay deals with T9, AAK1 (AAK1A) (Homo sapiens, UniProt Q2M2I8).
T9 construct: purchased in-house DSF kinase panel (SGC-style construct names; the trailing letter is the construct ID)
T9 sequence (Q2M2I8 27-365): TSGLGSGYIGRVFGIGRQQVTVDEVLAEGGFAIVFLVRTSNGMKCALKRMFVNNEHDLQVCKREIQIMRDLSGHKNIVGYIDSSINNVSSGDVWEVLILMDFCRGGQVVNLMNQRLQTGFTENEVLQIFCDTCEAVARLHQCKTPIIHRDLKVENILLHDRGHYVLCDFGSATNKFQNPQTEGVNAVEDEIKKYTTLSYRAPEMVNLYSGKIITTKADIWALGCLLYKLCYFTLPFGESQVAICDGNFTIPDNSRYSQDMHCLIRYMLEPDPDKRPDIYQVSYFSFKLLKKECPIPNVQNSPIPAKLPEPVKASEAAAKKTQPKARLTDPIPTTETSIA
Nature of the assay: DSF Tm panel. In kind it is binding. As to conditions: 10 μM compound.

The next assay addresses T10, MAP2K1A (Homo sapiens, UniProt Q02750).
T10 construct: purchased in-house DSF kinase panel (SGC-style construct names; the trailing letter is the construct ID)
Put plainly: DSF Tm panel. In kind it is binding. Particulars: 10 μM compound.

For a further assay, the target named is T11, GAKA (Homo sapiens, UniProt O14976).
T11 construct: purchased in-house DSF kinase panel (SGC-style construct names; the trailing letter is the construct ID)
T11 sequence (O14976 14-351): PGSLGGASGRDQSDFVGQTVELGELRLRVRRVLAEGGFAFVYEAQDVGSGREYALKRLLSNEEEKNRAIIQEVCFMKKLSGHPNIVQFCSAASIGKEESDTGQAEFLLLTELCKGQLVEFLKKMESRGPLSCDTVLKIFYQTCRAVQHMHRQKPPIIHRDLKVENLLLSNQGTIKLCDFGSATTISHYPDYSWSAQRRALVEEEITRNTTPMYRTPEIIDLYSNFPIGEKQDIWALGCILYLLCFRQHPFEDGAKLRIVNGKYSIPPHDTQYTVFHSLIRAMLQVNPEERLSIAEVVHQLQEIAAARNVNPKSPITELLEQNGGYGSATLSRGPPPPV
Nature of the assay: DSF Tm panel. As to conditions: 10 μM compound. Format: binding.

Another assay concerns the target T12, STK10 (Homo sapiens, UniProt O94804).
T12 construct: purchased in-house DSF kinase panel (SGC-style construct names; the trailing letter is the construct ID)
Put plainly: DSF Tm panel. Format: binding. Particulars: 10 μM compound.

As a reminder, the IC50 is the point on the concentration scale where inhibition reaches its midpoint. A lower IC50 goes with higher potency. The term ΔTm denotes the shift of the melting midpoint relative to a reference.

T10 sequence (Q02750 68-361): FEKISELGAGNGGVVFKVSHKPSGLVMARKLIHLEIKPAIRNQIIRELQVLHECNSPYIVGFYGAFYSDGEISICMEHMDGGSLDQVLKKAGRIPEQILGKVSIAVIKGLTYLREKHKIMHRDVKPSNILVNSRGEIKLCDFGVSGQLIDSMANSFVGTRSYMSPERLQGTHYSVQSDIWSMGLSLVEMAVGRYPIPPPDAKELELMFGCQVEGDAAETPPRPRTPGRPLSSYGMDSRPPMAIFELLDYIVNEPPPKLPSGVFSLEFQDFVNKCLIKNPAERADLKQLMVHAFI
T8 sequence (Q9P289 1-300): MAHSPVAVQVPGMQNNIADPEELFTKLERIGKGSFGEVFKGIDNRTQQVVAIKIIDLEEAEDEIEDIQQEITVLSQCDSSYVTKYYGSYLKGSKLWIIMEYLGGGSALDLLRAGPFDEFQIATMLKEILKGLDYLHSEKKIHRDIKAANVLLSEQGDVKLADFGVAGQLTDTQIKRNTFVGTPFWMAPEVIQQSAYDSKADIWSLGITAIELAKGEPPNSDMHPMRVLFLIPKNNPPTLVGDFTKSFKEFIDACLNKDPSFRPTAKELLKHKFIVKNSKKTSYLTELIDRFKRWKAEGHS
T7 sequence (Q14680 1-340): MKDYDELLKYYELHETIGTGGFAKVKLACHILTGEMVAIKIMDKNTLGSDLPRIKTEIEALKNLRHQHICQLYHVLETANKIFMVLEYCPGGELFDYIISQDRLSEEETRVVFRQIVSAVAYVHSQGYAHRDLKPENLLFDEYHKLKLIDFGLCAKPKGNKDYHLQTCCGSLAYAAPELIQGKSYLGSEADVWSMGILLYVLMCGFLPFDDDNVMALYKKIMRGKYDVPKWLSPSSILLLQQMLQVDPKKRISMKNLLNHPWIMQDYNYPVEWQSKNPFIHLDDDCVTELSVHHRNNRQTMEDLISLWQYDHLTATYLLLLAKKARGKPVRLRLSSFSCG
T4 sequence (P49759 148-484): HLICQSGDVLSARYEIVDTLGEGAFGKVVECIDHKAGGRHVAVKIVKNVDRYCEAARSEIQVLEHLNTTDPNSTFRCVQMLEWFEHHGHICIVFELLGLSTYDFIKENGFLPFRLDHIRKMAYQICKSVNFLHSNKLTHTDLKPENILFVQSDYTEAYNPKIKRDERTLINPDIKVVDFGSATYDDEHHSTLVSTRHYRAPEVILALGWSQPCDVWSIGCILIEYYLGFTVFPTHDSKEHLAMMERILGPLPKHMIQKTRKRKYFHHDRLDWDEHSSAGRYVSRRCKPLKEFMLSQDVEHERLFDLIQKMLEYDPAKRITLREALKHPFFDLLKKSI
T12 sequence (O94804 18-317 limits assumed): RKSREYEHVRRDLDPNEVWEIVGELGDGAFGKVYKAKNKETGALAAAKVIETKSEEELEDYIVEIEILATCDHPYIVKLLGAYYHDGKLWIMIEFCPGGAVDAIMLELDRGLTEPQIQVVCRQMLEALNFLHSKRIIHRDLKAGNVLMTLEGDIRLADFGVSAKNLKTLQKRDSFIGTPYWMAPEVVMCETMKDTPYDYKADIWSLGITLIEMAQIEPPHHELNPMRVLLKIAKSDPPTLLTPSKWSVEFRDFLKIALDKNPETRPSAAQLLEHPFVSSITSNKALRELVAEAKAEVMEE

On SLK, `COc1cc(CNC(=O)Nc2ccc3cc2OCCOCCNc2ccn4ncc-3c4n2)ccc1F` [compound 33] came in with an IC50 above 20 µM. Further, the ΔTm at 10 µM is 1.7 °C at PCTK1A; -5.3 °C on MST3A; 0.7 °C at DMPK1A; 4.7 °C at CLK1A; -0.1 °C at NEK1A; 1.5 °C at ABL1 (ABL1A). Besides, the ΔTm at 10 µM on MELKA came out at 2.1 °C; on MST4A it was 1.2 °C; on AAK1 (AAK1A) it was 6.4 °C; on MAP2K1A, 0.7 °C; on GAKA, 6.2 °C; at STK10, 6.7 °C.

Regarding `C[C@H](NC(=O)Nc1ccc2cc1OCCOCCNc1ccn3ncc-2c3n1)c1ccccc1` [compound 34], at SLK, the half-maximal inhibitory concentration (IC50) is above 20 µM. Also, the ΔTm at 10 µM on PCTK1A is 0.5 °C; at MST3A it was -7.8 °C; on DMPK1A, 0 °C; on CLK1A, 3.1 °C; at NEK1A it was -0.4 °C; on ABL1 (ABL1A), 1.3 °C. For the same compound, the ΔTm at 10 µM stood at 1.3 °C on MELKA; 0.4 °C at MST4A; 5.9 °C on AAK1 (AAK1A); 0.7 °C at MAP2K1A; 5.7 °C at GAKA; 5.6 °C on STK10.
